Drawing on ChEMBL document CHEMBL1671799, “Modelling topoisomerase I inhibition by minor groove binders” (Bioorg Med Chem, 2011), this text covers inhibition and Ratio for 62 compounds.

Active and inactive are the calls of the source. The rule behind the calls is not given here.

For this assay, the species on record is Bos taurus. In words: Inhibition of calf thymus topoisomerase 1 relative to Hoechst 33342.
For the compound `COc1ccc(-c2nc3ccc([N+](=O)[O-])cc3o2)cc1`, the inhibition result is “inactive”. Consider `Cc1ccccc1-c1nc2cc(-c3nc4cc(N5CCN(C)CC5)ccc4[nH]3)ccc2[nH]1`, for which the Ratio was 10.

As to `COc1ccc(-c2nc3cc([N+](=O)[O-])ccc3o2)cc1`, the inhibition result is “inactive”. Turning to `N#Cc1ccc2[nH]c(-c3ccc4[nH]cnc4c3)nc2c1`, the Ratio worked out at 1000.

With `COc1ccc(-c2nc3cc(-c4nc5cc(OC6CCN(C)CC6)ccc5[nH]4)ccc3[nH]2)cc1`, the Ratio was 2. In the case of `CCCc1nc2ccc(-c3nc4cc(-c5ccccc5)ccc4[nH]3)cc2[nH]1`, the Ratio was 1. The same measure, in the same setting: the same measure for `N#Cc1ccc2[nH]c(-c3ccc4[nH]c(-c5ccccc5)nc4c3)nc2c1`: more than 100; for `CCc1nc2ccc(-c3nc4cc(-c5ccccc5)ccc4[nH]3)cc2[nH]1`: 2. Still for that read-out and setting: the same measure for `Cc1ccc(-c2nc3cc(-c4nc5cc(C#N)ccc5[nH]4)ccc3[nH]2)cc1`: 1. As for `COc1ccc(-c2nc3cc(CO)ccc3[nH]2)cc1`, the Ratio came to 30000. With `COc1ccc(-c2nc3cc(C(N)=O)ccc3[nH]2)cc1`, the Ratio stood at 3000. Same read-out and setting: the same measure for `COc1ccc(-c2nc3cc(-c4nc5cc(N6CCN(C)CC6)ccc5[nH]4)ccc3[nH]2)cc1`: 1; for `Clc1ccc2[nH]c(-c3ccc4nc(-c5ccc6nc[nH]c6c5)[nH]c4c3)nc2c1`: 1; for `c1nc2ccc(-c3nc4ccc(-c5nc6cc(N7CCCCC7)ccc6[nH]5)cc4[nH]3)cc2[nH]1`: 0.5.

For the compound `c1ccc2cc3[nH]c(-c4ccc5nc[nH]c5c4)nc3cc2c1`, the Ratio amounted to 2000.

`COc1ccc(-c2nc3c([N+](=O)[O-])cccc3[nH]2)cc1`: the Ratio was more than 300000. Turning to `FC(F)(F)c1nc2ccc(-c3nc4ccc(-c5nc6ccc(-c7ccc(Cl)cc7)cc6[nH]5)cc4[nH]3)cc2[nH]1`, the Ratio was 1. The same measure, in the same setting: the same measure for `N#Cc1ccc2[nH]c(-c3ccc4[nH]c(-c5ccc6ccccc6c5)nc4c3)nc2c1`: 10.

On to `COc1ccc(-c2nc3ccccc3[nH]2)cc1`, for which the Ratio is more than 300000. Still for that read-out and setting: next, `c1ccc2[nH]c(-c3ccc4[nH]c(-c5ccc6[nH]cnc6c5)nc4c3)nc2c1`: 1.1. For the compound `Cc1cccc(-c2nc3cc(-c4nc5cc(C(N)=O)ccc5[nH]4)ccc3[nH]2)c1`, the Ratio was found to be 100. Still for that read-out and setting: next, `COc1ccc(-c2nc3cc(-c4nc5cc(N(C)C)ccc5[nH]4)ccc3[nH]2)cc1`: 1000. Still for that read-out and setting: the same measure for `c1ccc(-c2ccc3[nH]c(-c4ccc5nc(-c6ccccc6)[nH]c5c4)nc3c2)cc1`: 40. Take `COc1ccc(-c2nc3cc([N+](=O)[O-])ccc3s2)cc1`: the inhibition result was “inactive”. On to `Cc1cccc(-c2nc3cc(-c4nc5cc(C#N)ccc5[nH]4)ccc3[nH]2)c1`, for which the Ratio came out at 100. Same read-out and setting: next, `c1cc(-c2ccc3[nH]c(-c4ccc5[nH]c(-c6ccc7[nH]cnc7c6)nc5c4)nc3c2)ccn1`: 2; `c1ccc2cc(-c3ccc4[nH]c(-c5ccc6nc[nH]c6c5)nc4c3)ccc2c1`: 2.

With `N#Cc1ccc2[nH]c(-c3ccc4[nH]c(-c5cccc6ccccc56)nc4c3)nc2c1`, the Ratio came out at 10.

As to `c1ccc(-c2ccc3[nH]c(-c4ccc5[nH]c(-c6ccc7[nH]cnc7c6)nc5c4)nc3c2)nc1`, the Ratio stood at 3.3. As for `c1ccc(-c2ccc3[nH]c(-c4ccc5[nH]c(-c6ccc7[nH]cnc7c6)nc5c4)nc3c2)cc1`, the Ratio worked out at 1. With `Oc1nc2ccc(-c3nc4ccc(-c5nc6ccc(Br)cc6[nH]5)cc4[nH]3)cc2[nH]1`, the Ratio stood at 1. Turning to `COc1ccc(-c2cc3ccc([N+](=O)[O-])cc3[nH]2)cc1`, the inhibition result is “inactive”. In the case of `COc1ccc(-c2nc3cc(-c4nc5cc(CN(C)C)ccc5[nH]4)ccc3[nH]2)cc1`, the Ratio came to 2.5. The same measure, in the same setting: the same measure for `COc1ccc(-c2nc3cc([N+](=O)[O-])ccc3[nH]2)cc1`: 300; for `c1ccc2cc(-c3ccc4[nH]c(-c5ccc6[nH]c(-c7ccc8[nH]cnc8c7)nc6c5)nc4c3)ccc2c1`: 10.

As to `CN1CCN(c2ccc3[nH]c(-c4ccc5[nH]c(-c6ccc7ccccc7c6)nc5c4)nc3c2)CC1`, the Ratio came out at 10.

As for `N#Cc1ccc2[nH]c(-c3ccc4[nH]c(-c5ccc6[nH]cnc6c5)nc4c3)nc2c1`, the Ratio was determined as 0.1. Still for that read-out and setting: next, `CN1CCN(c2ccc3[nH]c(-c4ccc5[nH]c(-c6cccc7ccccc67)nc5c4)nc3c2)CC1`: 20; `Clc1ccc(-c2ccc3[nH]c(-c4ccc5nc[nH]c5c4)nc3c2)cc1`: 4.

On to `c1ccc(-c2ccc3[nH]c(-c4ccc5[nH]c(-c6ccc7[nH]nnc7c6)nc5c4)nc3c2)cc1`, for which the Ratio turned out to be 1. The same measure, in the same setting: the same measure for `COc1ccc(-c2nc3cc(C(=O)O)ccc3[nH]2)cc1`: more than 300000.

Regarding `COc1ccc(-c2nc3cc(-c4nc5cc(CCCN(C)C)ccc5[nH]4)ccc3[nH]2)cc1`, the Ratio amounted to 2. The same measure, in the same setting: next, `COc1cc2nc(-c3ccc4nc(-c5ccc6nc[nH]c6c5)[nH]c4c3)[nH]c2cc1Br`: 2. With `COc1ccc(-c2nc3cc(C=O)ccc3[nH]2)cc1`, the Ratio worked out at 300. For the compound `COc1ccc(-c2nc3ccc([N+](=O)[O-])cc3s2)cc1`, the inhibition entry is “inactive”.

Consider `COc1ccc(-c2nc3cc(-c4nc5cc([N+](=O)[O-])ccc5[nH]4)ccc3[nH]2)cc1`, for which the Ratio amounted to 1000. Turning to `COc1ccc(-c2ccc3[nH]c(-c4ccc5nc[nH]c5c4)nc3c2)cc1`, the Ratio came out at 1. With `Cc1ccccc1-c1nc2cc(-c3nc4cc(C#N)ccc4[nH]3)ccc2[nH]1`, the Ratio was more than 500. As to `CN1CCN(c2ccc3[nH]c(-c4ccc5[nH]c(-c6ccccc6)nc5c4)nc3c2)CC1`, the Ratio was 1. Take `c1ccc(-c2ccc3[nH]c(-c4ccc5[nH]c(-c6ccc7nccnc7c6)nc5c4)nc3c2)cc1`: the Ratio was more than 100. On the same count and under the same terms, next, `Fc1ccc2[nH]c(-c3ccc4nc(-c5ccc6nc[nH]c6c5)[nH]c4c3)nc2c1`: 0.05; `CCCc1nc2ccc(-c3nc4ccc(-c5nc6ccc(Br)cc6[nH]5)cc4[nH]3)cc2[nH]1`: 1; `Cc1ccccc1-c1nc2cc(-c3nc4cc(C(N)=O)ccc4[nH]3)ccc2[nH]1`: 100. On the same count and under the same terms, the same measure for `O=[N+]([O-])c1ccc2[nH]c(-c3ccc4nc(-c5ccc6nc[nH]c6c5)[nH]c4c3)nc2c1`: 0.5; for `COc1ccc(-c2nc3cc(-c4nc5cc(C#N)ccc5[nH]4)ccc3[nH]2)cc1`: 3.3; for `COc1ccc(-c2nc3cc(-c4nc5cc(N)ccc5[nH]4)ccc3[nH]2)cc1`: 100.

In the case of `COc1ccc(-c2nc3cc(C#N)ccc3[nH]2)cc1`, the Ratio is more than 300000.

For the compound `NC(=O)c1ccc2[nH]c(-c3ccc4[nH]c(-c5ccccc5)nc4c3)nc2c1`, the Ratio turned out to be 10. Still for that read-out and setting: the same measure for `c1ccc(-c2ccc3[nH]c(-c4ccc5[nH]c(-c6ccc7cc[nH]c7c6)nc5c4)nc3c2)cc1`: 5; for `c1ccc2c(-c3ccc4[nH]c(-c5ccc6[nH]c(-c7ccc8[nH]cnc8c7)nc6c5)nc4c3)cccc2c1`: 10.

On to `Oc1nc2ccc(-c3nc4cc(-c5nc6cc(-c7ccccc7)ccc6[nH]5)ccc4[nH]3)cc2nc1O`, for which the Ratio amounted to 1. The same measure, in the same setting: next, `COc1ccc(-c2nc3cc(-c4nc5cc(-c6nc7cc(C#N)ccc7[nH]6)ccc5[nH]4)ccc3[nH]2)cc1`: 1000.
